Assay results reported in PubChem BioAssay AID2060617 (Molecular Pharmacology Branch, DTP, NCI, 2025).

Test system: 485368-065-R4-J2-PDC spheroids with HUVEC/MSC, viability
Experiment: Anticancer human tumor 485368-065-R4-J2-PDC patient-derived pancreatic carcinoma cell line growth inhibition [CLK]
Conditions: for IC50: curve of first compound; for viability, T/C: stronger effect = lower value; active = viability on the fitted dose curve at most 10% of control; inactive = the rest
Outline: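 Multi-cell-type spheroids combined patient-derived tumor cells with HUVEC endothelial cells and human mesenchymal stem cells. Paired agents were dosed in half-log steps down from about clinical Cmax, or from 10 microM where Cmax was unknown.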

[1] = second compound 0.0316 µM, first compound 0.0316 µM
[2] = second compound 0.0316 µM, first compound 0.1 µM
[3] = second compound 0.0316 µM, first compound 0.316 µM
[4] = second compound 0.0316 µM, first compound 1 µM
[5] = second compound 0.0316 µM, first compound 3.16 µM
[6] = second compound 0.0316 µM, first compound 10 µM
[7] = second compound 0.1 µM, first compound 0.0316 µM
[8] = second compound 0.1 µM, first compound 0.1 µM
[9] = second compound 0.1 µM, first compound 0.316 µM
[10] = second compound 0.1 µM, first compound 1 µM
[11] = second compound 0.1 µM, first compound 3.16 µM
[12] = second compound 0.1 µM, first compound 10 µM
[13] = second compound 0.316 µM, first compound 0.0316 µM
[14] = second compound 0.316 µM, first compound 0.1 µM
[15] = second compound 0.316 µM, first compound 0.316 µM
[16] = second compound 0.316 µM, first compound 1 µM
[17] = second compound 0.316 µM, first compound 3.16 µM
[18] = second compound 0.316 µM, first compound 10 µM
[19] = second compound 1 µM, first compound 0.0316 µM
[20] = second compound 1 µM, first compound 0.1 µM
[21] = second compound 1 µM, first compound 0.316 µM
[22] = second compound 1 µM, first compound 1 µM
[23] = second compound 1 µM, first compound 3.16 µM
[24] = second compound 1 µM, first compound 10 µM
[25] = second compound 3.16 µM, first compound 0.0316 µM
[26] = second compound 3.16 µM, first compound 0.1 µM
[27] = second compound 3.16 µM, first compound 0.316 µM
[28] = second compound 3.16 µM, first compound 1 µM
[29] = second compound 3.16 µM, first compound 3.16 µM
[30] = second compound 3.16 µM, first compound 10 µM
[31] = second compound 10 µM, first compound 0.0316 µM
[32] = second compound 10 µM, first compound 0.1 µM
[33] = second compound 10 µM, first compound 0.316 µM
[34] = second compound 10 µM, first compound 1 µM
[35] = second compound 10 µM, first compound 3.16 µM
[36] = second compound 10 µM, first compound 10 µM
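Note: spheroids exposed to compounds for seven days.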
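Throughout, for viability, T/C: 100% = DMSO vehicle control wells.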

C=CC(=O)N1CCN(c2nc(=O)n(-c3c(C)ccnc3C(C)C)c3nc(-c4c(O)cccc4F)c(F)cc23)C(C)C1 (stereo not given) + CNC(=O)c1ccc(Nc2nc(OC3CCCC3)c3c(-c4ccc5nc(C)oc5c4)c[nH]c3n2)c(OC)c1
inactive: viability, T/C [1] 94% | viability, T/C [2] 110% | viability, T/C [3] 89.5% | viability, T/C [4] 103% | viability, T/C [5] 93.3% | viability, T/C [6] 98.9% | viability, T/C [7] 105% | viability, T/C [8] 98.5% | viability, T/C [9] 99.8% | viability, T/C [10] 109% | viability, T/C [11] 95.9% | viability, T/C [12] 88.8% | viability, T/C [13] 82% | viability, T/C [14] 92.5% | viability, T/C [15] 92.2% | viability, T/C [16] 95% | viability, T/C [17] 80.8% | viability, T/C [18] 72.8% | viability, T/C [19] 85% | viability, T/C [20] 87.9% | viability, T/C [21] 79.4% | viability, T/C [22] 82.8% | viability, T/C [23] 78.1% | viability, T/C [24] 75.7% | viability, T/C [25] 76.7% | viability, T/C [26] 69.7% | viability, T/C [27] 72.2% | viability, T/C [28] 73.8% | viability, T/C [29] 77.5% | viability, T/C [30] 69.8% | viability, T/C [31] 77.8% | viability, T/C [32] 76.4% | viability, T/C [33] 75% | viability, T/C [34] 74.4% | viability, T/C [35] 74.2% | viability, T/C [36] 67.4%
> 10 µM: IC50 (second compound 0.0316 µM) | IC50 (second compound 0.1 µM) | IC50 (second compound 0.316 µM) | IC50 (second compound 1 µM) | IC50 (second compound 3.16 µM) | IC50 (second compound 10 µM)

CC1(C)CCC(CN2CCN(c3ccc(C(=O)NS(=O)(=O)c4ccc(NCC5CCOCC5)c([N+](=O)[O-])c4)c(Oc4cnc5[nH]ccc5c4)c3)CC2)=C(c2ccc(Cl)cc2)C1 + CN1CCN(c2cc(C(=O)Nc3cc4cc(-c5cnn(C)c5)ccc4cn3)ccn2)CC1
< 0.0316 µM: IC50 (second compound 1 µM) | IC50 (second compound 3.16 µM) | IC50 (second compound 10 µM)
7.82 µM: IC50 (second compound 0.1 µM)
active: viability, T/C [19] 2.85% | viability, T/C [20] 0.83% | viability, T/C [21] 2.34% | viability, T/C [22] 1.27% | viability, T/C [23] 1.79% | viability, T/C [24] 3.68% | viability, T/C [25] 2.29% | viability, T/C [26] 1.33% | viability, T/C [27] 2.68% | viability, T/C [28] 2.94% | viability, T/C [29] 3.79% | viability, T/C [30] 3.42% | viability, T/C [31] 1.77% | viability, T/C [32] 2.36% | viability, T/C [33] 4.56% | viability, T/C [34] 5.88% | viability, T/C [35] 3.51% | viability, T/C [36] 1.68%
inactive: viability, T/C [1] 102% | viability, T/C [2] 112% | viability, T/C [3] 114% | viability, T/C [4] 111% | viability, T/C [5] 122% | viability, T/C [6] 35.4% | viability, T/C [7] 113% | viability, T/C [8] 112% | viability, T/C [9] 112% | viability, T/C [10] 113% | viability, T/C [11] 121% | viability, T/C [12] 32.4% | viability, T/C [13] 86.8% | viability, T/C [14] 97.2% | viability, T/C [15] 94.6% | viability, T/C [16] 95.3% | viability, T/C [17] 104% | viability, T/C [18] 23.5%
8.03 µM: IC50 (second compound 0.0316 µM)
6.55 µM: IC50 (second compound 0.316 µM)

Nc1ccn(C2OC(CO)C(O)C2(F)F)c(=O)n1 (stereo not given) + CNC(=O)c1ccc(Nc2nc(OC3CCCC3)c3c(-c4ccc5nc(C)oc5c4)c[nH]c3n2)c(OC)c1
0.0493 µM: IC50 (second compound 0.316 µM)
< 0.0316 µM: IC50 (second compound 10 µM)
0.0432 µM: IC50 (second compound 1 µM)
inactive: viability, T/C [1] 66.8% | viability, T/C [2] 45% | viability, T/C [3] 32.3% | viability, T/C [4] 35.2% | viability, T/C [5] 33.5% | viability, T/C [6] 30.5% | viability, T/C [7] 62.8% | viability, T/C [8] 43.4% | viability, T/C [9] 31.1% | viability, T/C [10] 33.4% | viability, T/C [11] 32.4% | viability, T/C [12] 26.6% | viability, T/C [13] 59.8% | viability, T/C [14] 34% | viability, T/C [15] 27.5% | viability, T/C [16] 24.8% | viability, T/C [17] 25.1% | viability, T/C [18] 21.8% | viability, T/C [19] 58% | viability, T/C [20] 28.2% | viability, T/C [21] 20.7% | viability, T/C [22] 17.2% | viability, T/C [23] 16.1% | viability, T/C [24] 13.9% | viability, T/C [25] 51.8% | viability, T/C [26] 28.1% | viability, T/C [27] 18.7% | viability, T/C [28] 15.4% | viability, T/C [29] 14.5% | viability, T/C [30] 13.2% | viability, T/C [31] 50% | viability, T/C [32] 24.5% | viability, T/C [33] 18.6% | viability, T/C [34] 16% | viability, T/C [35] 13.3% | viability, T/C [36] 11.2%
0.0653 µM: IC50 (second compound 0.1 µM)
0.0343 µM: IC50 (second compound 3.16 µM)
0.0732 µM: IC50 (second compound 0.0316 µM)

CC1COCCN1c1cc(C2(S(C)(=N)=O)CC2)nc(-c2ccnc3[nH]ccc23)n1 (stereo not given) + CNC(=O)c1ccc(Nc2nc(OC3CCCC3)c3c(-c4ccc5nc(C)oc5c4)c[nH]c3n2)c(OC)c1
inactive: viability, T/C [1] 82.7% | viability, T/C [2] 96% | viability, T/C [3] 102% | viability, T/C [4] 101% | viability, T/C [5] 99.2% | viability, T/C [6] 107% | viability, T/C [7] 91.1% | viability, T/C [8] 95.1% | viability, T/C [9] 101% | viability, T/C [10] 97.6% | viability, T/C [11] 102% | viability, T/C [12] 97.4% | viability, T/C [13] 84.7% | viability, T/C [14] 85% | viability, T/C [15] 75.9% | viability, T/C [16] 89.7% | viability, T/C [17] 90.3% | viability, T/C [18] 82% | viability, T/C [19] 80.3% | viability, T/C [20] 78% | viability, T/C [21] 72.6% | viability, T/C [22] 81.2% | viability, T/C [23] 90.1% | viability, T/C [24] 73.4% | viability, T/C [25] 76.3% | viability, T/C [26] 78.2% | viability, T/C [27] 68% | viability, T/C [28] 72.7% | viability, T/C [29] 68.7% | viability, T/C [30] 54.1% | viability, T/C [31] 74% | viability, T/C [32] 70.6% | viability, T/C [33] 62.2% | viability, T/C [34] 71.6% | viability, T/C [35] 69% | viability, T/C [36] 59.6%
> 10 µM: IC50 (second compound 0.0316 µM) | IC50 (second compound 0.1 µM) | IC50 (second compound 0.316 µM) | IC50 (second compound 1 µM) | IC50 (second compound 3.16 µM) | IC50 (second compound 10 µM)

CCN1CCN(Cc2ccc(Nc3ncc(F)c(-c4cc(F)c5nc(C)n(C(C)C)c5c4)n3)nc2)CC1 + CNC(=O)c1ccc(Nc2nc(OC3CCCC3)c3c(-c4ccc5nc(C)oc5c4)c[nH]c3n2)c(OC)c1
inactive: viability, T/C (second compound 0.0316 µM, first compound 0.00316 µM) 95.9% | viability, T/C (second compound 0.0316 µM, first compound 0.01 µM) 106% | viability, T/C [1] 103% | viability, T/C [2] 135% | viability, T/C [3] 134% | viability, T/C [4] 117% | viability, T/C (second compound 0.1 µM, first compound 0.00316 µM) 89.4% | viability, T/C (second compound 0.1 µM, first compound 0.01 µM) 92% | viability, T/C [7] 93% | viability, T/C [8] 95.1% | viability, T/C [9] 109% | viability, T/C [10] 100% | viability, T/C (second compound 0.316 µM, first compound 0.00316 µM) 81.5% | viability, T/C (second compound 0.316 µM, first compound 0.01 µM) 81% | viability, T/C [13] 75.2% | viability, T/C [14] 66.5% | viability, T/C [15] 84.5% | viability, T/C [16] 72.9% | viability, T/C (second compound 1 µM, first compound 0.00316 µM) 71.8% | viability, T/C (second compound 1 µM, first compound 0.01 µM) 77.3% | viability, T/C [19] 82.8% | viability, T/C [20] 75.7% | viability, T/C [21] 75.4% | viability, T/C [22] 73.2% | viability, T/C (second compound 3.16 µM, first compound 0.00316 µM) 72.7% | viability, T/C (second compound 3.16 µM, first compound 0.01 µM) 71.7% | viability, T/C [25] 67.1% | viability, T/C [26] 63.1% | viability, T/C [27] 60.2% | viability, T/C [28] 63.2% | viability, T/C (second compound 10 µM, first compound 0.00316 µM) 72.1% | viability, T/C (second compound 10 µM, first compound 0.01 µM) 65.1% | viability, T/C [31] 66% | viability, T/C [32] 60.7% | viability, T/C [33] 60.4% | viability, T/C [34] 56.3%
> 1 µM: IC50 (second compound 0.0316 µM) | IC50 (second compound 0.1 µM) | IC50 (second compound 0.316 µM) | IC50 (second compound 1 µM) | IC50 (second compound 3.16 µM) | IC50 (second compound 10 µM)
